Test results published in patent US20090247646A1, “USE OF RESVERATROL AND DERIVATIVES THEREOF FOR PROMOTING THE WELLNESS STATE IN MAMMALS” (priority 2006, published 2009).
Where “and” joins values, the source holds several entries; their conditions need not be identical. Equal entries are not always repeated.

Test system: gene expression in heart tissue
Test: Genome-wide gene expression in heart tissue of old mice fed a resveratrol-supplemented diet (Affymetrix Mouse Genome 430 2.0 array)
Format: in vivo
[1] = microtubule associated serine/threonine kinase 2, Genebank ID NM_008641
[2] = mitochondrial ribosomal protein L9, Genebank ID AK021196
[3] = mitochondrial ribosomal protein L27, Genebank ID NM_053161
[4] = mitochondrial ribosomal protein L43, Genebank ID NM_053164
[5] = mitogen activated protein kinase kinase kinase 4, Genebank ID U11548
[6] = myotubularin related protein 1, Genebank ID BB381813
[7] = myotubularin related protein 6, Genebank ID BC020019
[8] = neural precursor cell expressed, developmentally down-regulted gene 4, Genebank ID BG073415
[9] = proteasome (prosome, macropain) subunit, alpha type 2, Genebank ID NM_008944
[10] = protein kinase inhibitor, alpha, Genebank ID AK010212
[11] = protein kinase, interferon inducible double stranded RNA dependent activator, Genebank ID NM_011871
[12] = protein phosphatase 1B, magnesium dependent, beta isoform, Genebank ID AJ271833
[13] = protein tyrosine phosphatase 4a2, Genebank ID AW495875
[14] = protein tyrosine phosphatase 4a3, Genebank ID AK014601
[15] = protein tyrosine phosphatase, non-receptor type 21, Genebank ID AW987375
[16] = protein tyrosine phosphatase-like (proline instead of catalytic arginine), member a, Genebank ID BB014781
[17] = puromycin-sensitive aminopeptidase, Genebank ID AK010446
[18] = ribonuclease P2, Genebank ID BG069849
[19] = ribosome binding protein 1, Genebank ID AK019964
[20] = ring finger protein 13, Genebank ID NM_011883
[21] = sarcolemma associated protein, Genebank ID NM_032008
[22] = serum/glucocorticoid regulated kinase, Genebank ID NM_011361
[23] = sialyltransferase 10 (alpha-2,3-sialyltransferase VI), Genebank ID NM_018784
[24] = suppressor of initiator codon mutations, related sequence 1 (S. cerevisiae), Genebank ID BI693609
[25] = synaptojanin 2 binding protein, Genebank ID AK008254
[26] = tousled-like kinase 1, Genebank ID BM244995
[27] = transferrin receptor, Genebank ID AK011596
[28] = transient receptor potential cation channel, subfamily M, member 7, Genebank ID AV320241
[29] = tumor rejection antigen gp96, Genebank ID BE995678
[30] = ubiquitin protein ligase E3 component n-recognin 1, Genebank ID BQ173927
[31] = ubiquitin specific protease 3, Genebank ID BM936366
[32] = ubiquitin specific protease 10, Genebank ID NM_009462
[33] = ubiquitin-conjugating enzyme E2D 3 (UBC4/5 homolog, yeast), Genebank ID AK009276

SMILES: Oc1ccc(/C=C/c2cc(O)cc(O)c2)cc1 [resveratrol, 3,4′,5-Trihydroxy-trans-stilbene]
- % of res effect [1]: 161.6802%
- Median RES [1]: 45140
- % of res effect [2]: 80.96%
- Median RES [2]: 25890
- % of res effect [3]: 182.0376%
- Median RES [3]: 91619
- % of res effect [4]: 104.1651%
- Median RES [4]: 61436
- % of res effect [5]: 124.4234%
- Median RES [5]: 9718
- % of res effect [6]: 78.35%
- Median RES [6]: 14340
- % of res effect [7]: 86.67%
- Median RES [7]: 16336
- % of res effect [8]: 52.89%
- Median RES [8]: 86633
- share of age-changed genes changed in the direction of the group of younger adult mice (of 1285 genes, heart): 45.5%
- % of res effect [9]: 104.7586%
- Median RES [9]: 139883
- % of res effect [10]: 59.34%
- Median RES [10]: 40073
- % of res effect [11]: 171.5674%
- Median RES [11]: 13990
- % of res effect [12]: 63.71%
- Median RES [12]: 52488
- % of res effect [13]: 71.59%
- Median RES [13]: 200548
- % of res effect [14]: 210.2152%
- Median RES [14]: 52165
- % of res effect [15]: 218.6485%
- Median RES [15]: 4135
- % of res effect [16]: 76.7738%
- Median RES [16]: 98966
- % of res effect [17]: 212.0408%
- Median RES [17]: 19697
- expression of genes related to protein synthesis and protein folding (reduced in old animals, old animals fed resveratrol-supplemented diet): upregulated to or close to the level found in young animals
- % of res effect [18]: 103.1963%
- Median RES [18]: 23730
- % of res effect [19]: 152.3511%
- Median RES [19]: 37971
- % of res effect [20]: 142.3463%
- Median RES [20]: 33170
- % of res effect [21]: 86.14%
- Median RES [21]: 11160
- Median RES (serine/threonine kinase 17b (apoptosis-inducing), Genebank ID AV173139 (two lines), listed as RES): 8039 and 12069
- % of res effect (serine/threonine kinase 17b (apoptosis-inducing), Genebank ID AV173139 (two lines), listed as res): 97.38% and 163.165%
- % of res effect [22]: 173.4519%
- Median RES [22]: 72667
- % of res effect [23]: 87.76%
- Median RES [23]: 16650
- % of res effect [24]: 80.5962%
- Median RES [24]: 203121
- % of res effect [25]: 121.5779%
- Median RES [25]: 40710
- number of genes at a level of 80-90% compared to the young group (text b59, heart): 62
- number of genes that reached a level of 70-80% (text b59, heart): 53
- % of res effect [26]: 79.5126%
- Median RES [26]: 4589
- % of res effect [27]: 54.0373%
- Median RES [27]: 86773
- % of res effect [28]: 129.8764%
- Median RES [28]: 19508
- % of res effect [29]: 94.11%
- Median RES [29]: 53900
- % of res effect [30]: 97.81%
- Median RES [30]: 7571
- % of res effect [31]: 151.8677%
- Median RES [31]: 9725
- % of res effect [32]: 186.31%
- Median RES [32]: 12090
- % of res effect [33]: 69.45%
- Median RES [33]: 40250
- number of genes changed in the direction of the group of younger adult mice (within the 1285 genes significantly changed between young and old mice (at least 1.25-fold, p<0.01), heart): 585
